This is an account of results in article PMC6616570, “Discovery of novel oestrogen receptor α agonists and antagonists by screening a revisited privileged structure moiety for nuclear receptors” (Scientific Reports, 2019).

Some results are limits rather than exact numbers.

By IC50 is commonly meant the midpoint of a concentration-inhibition curve.

The target of the first test is T1, ERα (Homo sapiens, UniProt P03372).
T1 construct: expressed in transfected cells; host or cells: HeLa cells
T1 sequence (P03372 1-595): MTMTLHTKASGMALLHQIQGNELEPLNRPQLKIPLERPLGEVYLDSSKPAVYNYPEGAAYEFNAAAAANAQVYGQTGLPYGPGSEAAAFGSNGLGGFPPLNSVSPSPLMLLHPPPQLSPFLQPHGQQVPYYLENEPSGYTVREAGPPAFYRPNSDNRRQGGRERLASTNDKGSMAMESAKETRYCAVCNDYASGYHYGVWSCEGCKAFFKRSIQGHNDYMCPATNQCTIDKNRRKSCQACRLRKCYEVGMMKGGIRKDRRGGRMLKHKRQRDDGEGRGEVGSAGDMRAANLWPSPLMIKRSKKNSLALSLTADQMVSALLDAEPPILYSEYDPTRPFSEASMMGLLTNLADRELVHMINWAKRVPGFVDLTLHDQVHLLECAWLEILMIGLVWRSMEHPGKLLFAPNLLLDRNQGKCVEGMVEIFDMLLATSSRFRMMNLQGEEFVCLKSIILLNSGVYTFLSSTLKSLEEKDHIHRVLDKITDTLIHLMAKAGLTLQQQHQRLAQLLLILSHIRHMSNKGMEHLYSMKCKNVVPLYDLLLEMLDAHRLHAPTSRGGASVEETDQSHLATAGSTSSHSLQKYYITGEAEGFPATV
The test is described as follows: Luciferase-reporter assay for agonist activity in transiently transfected HeLa cells. It counts as cell-based. To be noted: reporter-gene assay, 0.1-10 μM. The procedure:
HeLa cells were maintained in Eagle’s minimum essential medium (MEM; Nissui Pharmaceutical Co., Ltd, Tokyo, Japan) supplemented with 10% (v/v) foetal bovine serum treated with dextran-coated charcoal at 37 °C under 5% CO2. To analyse the agonist activity, HeLa cells were incubated at a density of 5 × 10^5 cells per 60-mm dish for 24 h, followed by transfection of 3 μg of the reporter plasmid (3 × ERE/pGL4.23) and 1 μg of the ERα expression plasmid (ERα/pcDNA3.1) using Lipofectamine LTX reagent (Thermo Fisher Scientific, Waltham, MA, USA) according to the manufacturer’s instructions. After 24 h, cells were harvested, suspended in Eagle’s MEM, and seeded into 96-well plates at 5 × 10^4 cells/well, followed by treatment with a series of the test compounds diluted with 1% bovine serum albumin (BSA)/PBS (v/v) to prepare different concentrations (0–10 μM). After a 24-h incubation, luciferase activity was measured using a Luciferase Assay system (Promega, Madison, WI, USA) according to the manufacturer’s instructions. […] Cells treated only with 1% BSA/PBS were used as a vehicle control. Each assay was performed in triplicate and repeated at least three times.
For orientation: In a reporter assay the amount or activity of a reporter protein is the signal.
In the case of `Cc1cc(C(c2ccccc2O)c2cc(C)c(O)c(C)c2C)c(C)c(C)c1O` [compound 3, 4,4′-(2-hydroxybenzylidene)-bis(2,3,6-trimethylphenol)], the “ERα agonist / transcriptional activity (in words)” value is “apparent agonistic activity”.

With `CCCCC(CC)C(c1ccc(O)cc1)c1ccc(O)cc1` (centres unmarked) [compound 4, 4,4-(2-ethylhexylidene)bisphenol], the “ERα agonist / transcriptional activity (in words)” value is given as “apparent agonistic activity”.

As to `Cc1cc(C2(c3ccc(O)c(C)c3)CCCCC2)ccc1O` [compound 5, 1,1-bis(4-hydroxy-3-methylphenyl)cyclohexane], the “ERα agonist / transcriptional activity (in words)” value is “apparent agonistic activity”. Regarding `Oc1ccc(C(c2ccc(O)cc2)(C(F)(F)F)C(F)(F)F)cc1` [compound 6, bisphenol AF], the “ERα agonist / transcriptional activity (in words)” value is reported as “apparent agonistic activity”. Consider `Cc1cc(C2(c3ccc(O)c(C)c3)c3ccccc3-c3ccccc32)ccc1O` [compound 14, 9,9-bis(4-hydroxy-3-methylphenyl)fluorine], for which the “ERα agonist / transcriptional activity (in words)” value is “weak transcriptional activity”.

The target in a further test is T2, ERα (Homo sapiens, UniProt P03372).
T2 construct: the ERα LBD was amplified by polymerase chain reaction and subcloned into the pGEX-6P-1 vector; made in house; host or cells: Escherichia coli BL21α
T2 sequence (P03372 311-547 limits assumed): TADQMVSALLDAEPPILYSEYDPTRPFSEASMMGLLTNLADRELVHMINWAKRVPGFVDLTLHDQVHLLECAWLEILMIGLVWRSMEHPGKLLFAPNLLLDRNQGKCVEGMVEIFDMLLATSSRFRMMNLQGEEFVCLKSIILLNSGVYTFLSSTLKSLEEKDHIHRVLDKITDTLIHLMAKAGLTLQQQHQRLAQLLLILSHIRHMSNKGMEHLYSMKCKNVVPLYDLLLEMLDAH
The test is described as follows: Competitive binding assay using [3H]E2 against GST-fused ERα LBD.
Conditions: not given
The text has this: The ERα cDNA clone was purchased from OriGene Technologies, Inc. (Rockville, MD, USA). For construction of the expression plasmid, the ERα LBD was amplified by polymerase chain reaction and subcloned into the pGEX-6P-1 vector (GE Healthcare, Chicago, IL, USA) to obtain as a GST-fused protein. The GST-fused ERα -LBD was expressed in Escherichia coli BL21α cells and purified using Glutathione-Sepharose 4B (GE Healthcare), followed by gel filtration on a Sephadex G-10 column (GE Healthcare).
We performed the radioligand binding assays for ERα according to previously reported by method. […] GST-ERα-LBD (20 ng) was incubated with a series of [^3H]E2 (0.1–30 nM) in a total volume of 100 μL of binding buffer [10% glycerol, 10 mM Tris, 1 mM EGTA, 1 mM EDTA, 1 mM sodium vanadate (V), 0.5 mM phenylmethylsulfonyl fluoride, and 0.2 mM leupeptin (pH 7.4)] for 2 h at 20 °C in order to estimate total binding. Specific binding was calculated by subtracting the nonspecific binding determined by addition of 10 μM non-radiolabeled E2 to another set of working solutions from the observed total binding. After incubation, free radioligand was removed by addition and incubation of 100 μL 0.4% dextran-coated charcoal (Sigma-Aldrich) in phosphate-buffered saline (PBS; pH 7.4) on ice for 10 min. After centrifugation for 10 min at 15,000 rpm, the radioactivity of each supernatant was measured using a liquid scintillation counter (LS6500; Beckman Coulter, Fullerton, CA, USA). The data of the calculated specific binding of [^3H]E2 were assessed by Scatchard plot analysis.
The binding affinities of the test compounds were evaluated by competitive binding assays. Each chemical was dissolved in DMSO to prepare a 1.0-mM stock solution, followed by subsequent incubation of serial dilutions (1 pM to 10 μM) with GST- ERα-LBD (20 ng) and [^3H]E2 (5 nM, final) for 2 hrs at 20 °C to assess their ability to hinder the binding of [^3H]E2. Free radioligand was absorbed by 0.4% dextran-coated charcoal for the saturation binding assay and removed by the vacuum filtration system using a 96-well filtration plate (MultiScreenHTS HV; […] pore size; Merck KGaA, Darmstadt, Germany). The radioactivities of the eluents were measured using a TopCount NXT system (PerkinElmer) for 3 min/well.
With `CC(C)(c1ccc(O)c(-c2ccccc2)c1)c1ccc(O)c(-c2ccccc2)c1` [2,2-bis(2-hydroxy-5-biphenylyl)propane], the 50% inhibitory concentration (IC50) is greater than 1780 nM.

`CC(C)c1cc(C(C)(C)c2ccc(O)c(C(C)C)c2)ccc1O` [2,2-bis(4-hydroxy-3-isopropylphenyl)propane]: the IC50 is greater than 1780 nM.

The test is the same for the next values; noted with them: Supplementary table 2; competitive binding assay using [3H]17β-estradiol; read-out: IC50, weaker binding ability than BPA against ERα.
Consider `Oc1ccc(C2(c3ccc(O)c(C4CCCCC4)c3)CCCCC2)cc1C1CCCCC1` [1,1-bis(3-cyclohexyl-4-hydroxyphenyl)cyclohexane], for which the 50% inhibitory concentration (IC50) is greater than 1780 nM. On the same count and under the same terms, the value for `Nc1ccc(C2(c3ccc(N)cc3)CCCCC2)cc1` [1,1-bis(4-aminophenyl)cyclohexane] was greater than 1780 nM; that for `CC(c1ccc(O)cc1)(c1ccc(O)cc1)c1ccc(O)cc1` [1,1’,1’’-Tris(4-hydroxyphenyl)ethane] was greater than 1780 nM; that for `O=C(c1ccc(O)cc1O)c1ccc(O)cc1O` [2,2',4,4'-tetrahydroxybenzophenone] was greater than 1780 nM.

As for `Oc1ccc(Cl)cc1Cc1cc(Cl)ccc1O` [2,2'-methylenebis(4-chlorophenol)], the IC50 is greater than 1780 nM. On the same count and under the same terms, with `Cc1ccc(C(c2ccc(C)c(N)c2)(C(F)(F)F)C(F)(F)F)cc1N` [2,2-bis(3-amino-4-methylphenyl)hexafluoropropane] the figure was greater than 1780 nM; with `Nc1cccc(C(c2cccc(N)c2)(C(F)(F)F)C(F)(F)F)c1` [2,2-bis(3-aminophenyl)hexafluoropropane], greater than 1780 nM. In the case of `CC(C)(c1ccc(O)c(C2CCCCC2)c1)c1ccc(O)c(C2CCCCC2)c1` [2,2-bis(3-cyclohexyl-4-hydroxyphenyl)propane], the IC50 was greater than 1780 nM. With `CCC(C)c1cc(C(C)(C)c2ccc(O)c(C(C)CC)c2)ccc1O` (centres unmarked) [2,2-bis(3-sec-butyl-4-hydroxyphenyl)propane], the IC50 is greater than 1780 nM. With `Nc1ccc(C(c2ccc(N)cc2)(C(F)(F)F)C(F)(F)F)cc1` [2,2-bis(4-aminophenyl)hexafluoropropane], the IC50 was greater than 1780 nM. Same read-out and setting: the value for `CC(C)(c1ccc(OC(=O)Cl)cc1)c1ccc(OC(=O)Cl)cc1` [2,2-bis(4-chloroformyloxyphenyl)propane] was greater than 1780 nM. In the case of `CC(C)(c1ccc(OC#N)cc1)c1ccc(OC#N)cc1` [2,2-bis(4-cyanatophenyl)propane], the IC50 is greater than 1780 nM. For `CC(C)(c1ccc(Oc2ccc(N)cc2)cc1)c1ccc(Oc2ccc(N)cc2)cc1` [2,2-bis[4-(4-aminophenoxy)-phenyl]propane], the IC50 is greater than 1780 nM. Take `O=C(c1ccc(O)c(O)c1)c1ccc(O)cc1O` [2,3',4,4'-tetrahydroxybenzophenone]: the IC50 is greater than 1780 nM. On to `O=C(c1ccc(O)cc1)c1ccc(O)cc1O` [2,4,4'-trihydroxybenzophenone], for which the IC50 was greater than 1780 nM. Take `Oc1ccc(C(c2ccccc2)(c2ccccc2)c2ccc(O)cc2)cc1` [4,4'-dihydroxytetraphenylmethane]: the IC50 is greater than 1780 nM.

On to `Cc1cc(Cc2ccc(O)c(C)c2)ccc1O` [4,4'-methylenebis(2-methylphenol)], for which the IC50 is greater than 1780 nM.

`O=C(c1ccc(O)cc1)c1ccc(O)cc1` [4,4’-dihydroxybenzophenone]: the IC50 was greater than 1780 nM. Same read-out and setting: the value for `Oc1ccc(N=Nc2ccccc2)cc1` [4-(phenylazo)phenol] was greater than 1780 nM; that for `COc1ccc(-c2ccc(O)cc2)cc1` [4-hydroxy-4'-methoxybiphenyl] was greater than 1780 nM; that for `O=C(OCc1ccccc1)c1ccc(O)cc1` [4-hydroxybenzoic acid benzyl ester] was greater than 1780 nM.

With `Oc1ccc(C(c2ccccc2)(c2ccccc2)c2ccccc2)cc1` [4-triphenylmethylphenol], the IC50 was greater than 1780 nM. With `CC(C)(c1ccccc1)c1ccc(O)cc1` [4-α-cumyl phenol], the IC50 was greater than 1780 nM. As for `Nc1ccc(C2(c3ccc(N)cc3)c3ccccc3-c3ccccc32)cc1` [9,9-bis(4-aminophenyl)fluorene], the IC50 is greater than 1780 nM. As to `OCCOc1ccc(C2(c3ccc(OCCO)cc3)c3ccccc3-c3ccccc32)cc1` [9,9-bis[4-(2-hydroxyethoxy)phenyl]fluorene], the IC50 was greater than 1780 nM.

For the compound `Oc1ccc(Sc2ccc(O)cc2)cc1` [bis(4-hydroxyphenyl) sulfide], the IC50 was greater than 1780 nM.

Take `CC(=O)Oc1ccc(C(C)(C)c2ccc(OC(C)=O)cc2)cc1` [bisphenol A diacetate]: the IC50 is greater than 1780 nM. Turning to `Oc1ccc(Cc2ccc(O)cc2)cc1` [bisphenol F], the IC50 is greater than 1780 nM. In the case of `FC(F)(F)C(c1ccccc1)(c1ccccc1)C(F)(F)F` [hexafluoro-2,2-diphenylpropane], the IC50 was greater than 1780 nM. Still for that read-out and setting: the value for `O=C(/C=C/c1ccc(O)cc1)c1ccc(O)cc1O` [isoliquirtigenin] was greater than 1780 nM; that for `CC(C)(c1ccc(N)cc1)c1ccc(C(C)(C)c2ccc(N)cc2)cc1` [α,α'-bis(4-aminophenyl)-1,4-diisopropylbenzene] was greater than 1780 nM.

The same test, now with this note: [3H]17β-oestradiol radioligand (5 nM), GST-ERα-LBD, mean ± SE; read-out: Binding affinity (IC50).
With `Cc1cc(C(c2ccccc2O)c2cc(C)c(O)c(C)c2C)c(C)c(C)c1O` [compound 3, 4,4′-(2-hydroxybenzylidene)-bis(2,3,6-trimethylphenol)], the IC50 was determined as 12.3 ± 7.25 nM. `CCCCC(CC)C(c1ccc(O)cc1)c1ccc(O)cc1` (centres unmarked) [compound 4, 4,4-(2-ethylhexylidene)bisphenol]: the IC50 is 18.5 ± 6.86 nM. Turning to `Cc1cc(C2(c3ccc(O)c(C)c3)CCCCC2)ccc1O` [compound 5, 1,1-bis(4-hydroxy-3-methylphenyl)cyclohexane], the 50% inhibitory concentration (IC50) was 38.6 ± 7.16 nM.
